{"source": "paper PMC9775322", "about": "“An Integrated Analysis of Mechanistic Insights into Biomolecular Interactions and Molecular Dynamics of Bio-Inspired Cu(II) and Zn(II) Complexes towards DNA/BSA/SARS-CoV-2 3CL^pro by Molecular Docking-Based Virtual Screening and FRET Detection” (Biomolecules, 2022)", "key": {"CT-DNA": {"tested_on": "CT-DNA", "experiment": "DNA binding by cyclic voltammetry", "design": "species or system calf", "settings": "for Kb, Method II: Cp/Cf vs [DNA]; for Kb, Method III: Ip^2 vs (Ipo^2 − Ip^2)/[DNA]; for Kred/Koxi (Calcd): Nernst equation, Ant.log nEs°/0.0591, n = 1; for Kred/Koxi Found (I): from method I binding constants; for Kb, Method I, Oxi / Kb, Method I, Red: log (1/[DNA]) vs log (I/I0 − I); for Kb, Method I, Oxi: oxidation; for Kb, Method I, Red: reduction; for S (binding site size): method II", "description": "The CV experiment was carried out for free substances at 10 µM at room temperature with a 5 mM Tris-HCl/50 mM NaCl buffer solution (pH: 7.4). While CT-DNA increases (0–10 µM) in each sample solution, shifts in potential, including variations in the anodic and cathodic peak currents, have been monitored.\n2.2.7. Evaluation of DNA interaction properties using cyclic voltammetry technique The electrochemical analysis is a critical entity to examine the electron transfer reactions of the test compounds. With a scan rate of 0.1V, the CHI 620C electrochemical analyzer was utilized with a three-electrode system consisting of glassy carbon as the working electrode, Ag/AgCl as the reference electrode, and platinum wire as the counter/auxiliary electrode to monitor changes in peak current and peak potential during the interaction between test compound and DNA. The changes in peak current and peak potential further afford data on the binding constant as well as the mode of interaction for test compound –DNA adducts. In single-compartment cells of 5 –15 mL, electrochemical titrations for all test compounds were executed at 25 °C in the absence and presence of DNA. The solutions were then deoxygenated by passing them through N 2 before measurements were made. The electrochemical analysis for free compounds was executed at a 10 µM concentration in the presence of 5mM Tr is-HCl /50 mM NaCl (pH = 7.2) buffer solution. Changes in the anodic […]\nand cathodic peak currents, as well as potential shifts, have been observed as CT-DNA concentrations in each solution of complexes rise from 1 to 10 µM [32].\nI ) = log [DNA] + log Kb (S24)\nThe peak currents of the chemical in the absence and presence of deoxyribonucleic acid are designated as I0 and I, respectively.\nKb values for all samples were estimated through the linear regression plot of log (1/[DNA]) versus log (I/I0–I) by method-I. Equation (S26) was attained from equation (S25).\nCf and Cb are represented as the free substance concentration and DNA-interacted compound, respectively, and equation (S28) was obtained by comparing equations (S26) and (S27).\nIpa is denoted as the anodic peak current in amperes, n is represented as the number of electrons participating in the redox (M 1+/M2+) process (n=1), The activation coefficient (charge transfer coefficient) is shown by the symbol α. and the value is equal to 0.5, which is a typically supported approximation for numerous quasi-reversible systems.\n2.3. DFT and molecular modelling studies\nDFT calculations were performed to comprehend the electronic structure and reactivity of ligand (HL) and metal complexes ( 1b-2b) using the Gaussian 09 package [ 34]. Geometries were fully optimized both in the gas phase and methanol solution using B3LYP, and comparatively later with the CAM-B3LYP and M06-2X functionals. For each complex, the […]"}, "EB–DNA": {"tested_on": "EB–DNA", "experiment": "Ethidium bromide displacement assay by fluorescence spectral titration", "type": "binding, calf", "settings": "Kapp=KEB[EB]/[compound], KEB = 10^7 M^−1 at 50 µM EB; compound concentration at 50% reduction of EB fluorescence"}, "Shigella flexneri": {"tested_on": "Shigella flexneri", "experiment": "Agar disc diffusion antibacterial test", "settings": "for diameter of clear zone inhibition / Inhibition %: E, (-) Shigella flexneri; for diameter of clear zone inhibition: 20 µL of 100 µM on 6 mm disc, Control (DMSO) = 6 mm; for Inhibition %: (T–C)/T × 100"}}}
{"compound": "[O-]c1ccccc1N=Cc1ccc(N2CCOCC2)cc1.[O-]c1ccccc1N=Cc1ccc(N2CCOCC2)cc1.[Zn+2].c1cnc2c(c1)ccc1cccnc12", "note": "[(2b), [Zn^II(L)2(phen)]]", "values": [{"measurement": "Kb, Method II", "setting": "CT-DNA", "value": 32242, "unit": "M⁻¹"}, {"measurement": "Kb, Method III", "setting": "CT-DNA", "value": 18300, "unit": "M⁻¹"}, {"measurement": "Kred/Koxi (Calcd)", "setting": "CT-DNA", "value": 3.7609}, {"measurement": "Kred/Koxi Found (I)", "setting": "CT-DNA", "value": 1.1168}, {"measurement": "Kb, Method I, Oxi", "setting": "CT-DNA", "value": 14610, "unit": "M⁻¹"}, {"measurement": "Kb, Method I, Red", "setting": "CT-DNA", "value": 16317, "unit": "M⁻¹"}, {"measurement": "S (binding site size)", "setting": "CT-DNA", "value": 0.248, "unit": "bp"}, {"measurement": "Kapp (apparent binding constant)", "setting": "EB–DNA", "value": "4.804e+06", "unit": "M⁻¹"}, {"measurement": "diameter of clear zone inhibition", "setting": "Shigella flexneri", "value": 14, "unit": "mm"}, {"measurement": "Inhibition %", "setting": "Shigella flexneri", "value": 57, "unit": "%"}]}
{"compound": "Oc1ccccc1N=Cc1ccc(N2CCOCC2)cc1", "note": "[(HL), 2-(4-morpholinobenzylideneamino)phenol]", "values": [{"measurement": "Kb, Method II", "setting": "CT-DNA", "value": 2477, "unit": "M⁻¹"}, {"measurement": "Kb, Method III", "setting": "CT-DNA", "value": 4837, "unit": "M⁻¹"}, {"measurement": "Kred/Koxi (Calcd)", "setting": "CT-DNA", "value": 2.0964}, {"measurement": "Kred/Koxi Found (I)", "setting": "CT-DNA", "value": 1.1125}, {"measurement": "Kb, Method I, Oxi", "setting": "CT-DNA", "value": 5280, "unit": "M⁻¹"}, {"measurement": "Kb, Method I, Red", "setting": "CT-DNA", "value": 5874, "unit": "M⁻¹"}, {"measurement": "S (binding site size)", "setting": "CT-DNA", "value": 0.446, "unit": "bp"}, {"measurement": "Kapp (apparent binding constant)", "setting": "EB–DNA", "value": "4.2e+06", "unit": "M⁻¹"}, {"measurement": "Inhibition %", "setting": "Shigella flexneri", "value": 57, "unit": "%"}, {"measurement": "zone of inhibition at 100 µM", "setting": "Shigella flexneri; Shigella flexneri, read-out: diameter of clear zone inhibition", "value": 14, "unit": "mm"}]}
{"compound": "[Cu+2].[O-]c1ccccc1N=Cc1ccc(N2CCOCC2)cc1.[O-]c1ccccc1N=Cc1ccc(N2CCOCC2)cc1.c1cnc2c(c1)ccc1cccnc12", "note": "[(1b), [Cu^II(L)2(phen)]]", "values": [{"measurement": "Kb, Method II", "setting": "CT-DNA", "value": 35514, "unit": "M⁻¹"}, {"measurement": "Kb, Method III", "setting": "CT-DNA", "value": 21695, "unit": "M⁻¹"}, {"measurement": "Kred/Koxi (Calcd)", "setting": "CT-DNA", "value": 3.2434}, {"measurement": "Kred/Koxi Found (I)", "setting": "CT-DNA", "value": 1.2053}, {"measurement": "Kb, Method I, Oxi", "setting": "CT-DNA", "value": 17320, "unit": "M⁻¹"}, {"measurement": "Kb, Method I, Red", "setting": "CT-DNA", "value": 20878, "unit": "M⁻¹"}, {"measurement": "S (binding site size)", "setting": "CT-DNA", "value": 0.267, "unit": "bp"}, {"measurement": "Kapp (apparent binding constant)", "setting": "EB–DNA", "value": "1e+07", "unit": "M⁻¹"}, {"measurement": "diameter of clear zone inhibition", "setting": "Shigella flexneri", "value": 17, "unit": "mm"}, {"measurement": "Inhibition %", "setting": "Shigella flexneri", "value": 65, "unit": "%"}]}
